Assay results published in article PMC9238401, “Peptide Conjugates Derived from flg15, Pep13, and PIP1 That Are Active against Plant-Pathogenic Bacteria and Trigger Plant Defense Responses” (Applied and Environmental Microbiology, 2022).
Non-standard residues stand in square brackets, D forms with d. Residues, ends and D or L forms follow the SMILES beside them. *: point of attachment. Butyryl = CCCC(=O)*

Tests used:
[1] = tested on: Erwinia amylovora PMV6076; experiment: In vitro growth inhibition (MIC); type: cell-based; details: TSB, 25°C, 48 h, OD 600 nm (Bioscreen C), three replicates, experiment repeated twice; MIC = lowest concentration with no growth, given as range
Protocol: (§1) Peptide conjugates were tested for in vitro growth inhibition of the plant-pathogenic bacteria E. amylovora PMV6076, Xanthomonas arboricola pv. pruni CFBP5563, X. fragariae Xf349-9A, X. axonopodis pv. vesicatoria 2133-2, P. syringae pv. actinidiae Psa3700.1.1, and P. syringae pv. syringae EPS94 (Fig. 1, Table SA). The corresponding monomers (flg15, BP13, Pep13, PIP1, BP16, BP100, BP143, BP387, BP475, and KSL-W) were included for comparison.
(§2) The following plant-pathogenic bacterial strains were used: Erwinia amylovora PMV6076 (Institut National de la Recherche Agronomique, Angers, France), Pseudomonas syringae pv. syringae EPS94 (Institut de Tecnologia Agroalimentària, University of Girona, Spain), Xanthomonas axonopodis pv. vesicatoria 2133-2, X. axonopodis pv. vesicatoria Xav206 (Xav) (D. F. Ritchie, Department of Plant Pathology, North Carolina State University), Pseudomonas syringae pv. actinidiae Psa3700.1.1, Xanthomonas fragariae Xf349-9A (Instituto Valenciano de Investigaciones Agrarias, Valencia, Spain), and Xanthomonas arboricola pv. pruni CFBP5563 (Collection Française de Bactéries Associées aux Plantes, Angers, France). All bacteria except for X. fragariae were stored in Luria Bertani (LB) broth supplemented with glycerol (20%) and maintained at −80°C. For X. fragariae, medium B ([80]) was used instead of LB. E. amylovora, X. arboricola pv. pruni, P. syringae pv. syringae, and P. syringae pv. actinidiae were scraped from the agar medium after growing for 24 h at 25°C, and X. axonopodis pv. vesicatoria and X. fragariae, after growing for 48 h at 25°C. The cell material was suspended in sterile water to obtain a suspension of 10^8 CFU mL^−1.
(§3) Lyophilized peptides were solubilized in sterile Milli-Q water to a final concentration of 1 mM and filter-sterilized through a 0.22-μm pore filter. […] Then, 20 μL of each dilution were mixed in a microtiter plate well with 20 μL of the corresponding suspension of the bacterial indicator, 160 μL of Trypticase soy broth (TSB) (bioMérieux, France) to a total volume of 200 μL. Three replicates for each combination of strain, compound, and concentration were used. Microbial growth was determined by optical density measurement at 600 nm (Bioscreen C; Labsystem, Helsinki, Finland). Microplates were incubated at 25°C with 20 s of shaking before hourly absorbance measurement for 48 h. The experiment was repeated twice. The MIC was taken as the lowest compound concentration with no growth at the end of the experiment.

[2] = tested on: Pseudomonas syringae pv. actinidiae Psa3700.1.1; experiment: In vitro growth inhibition (MIC); type: cell-based; details: TSB, 25°C, 48 h, OD 600 nm (Bioscreen C), three replicates, experiment repeated twice; MIC given as range
Protocol: as §1, §2, §3

[3] = tested on: Pseudomonas syringae pv. syringae EPS94; experiment: In vitro growth inhibition (MIC); type: cell-based; details: TSB, 25°C, 48 h, OD 600 nm (Bioscreen C), three replicates, experiment repeated twice; MIC given as range
Protocol: as §1, §2, §3

[4] = tested on: Xanthomonas arboricola pv. pruni CFBP5563; experiment: In vitro growth inhibition (MIC); type: cell-based; details: TSB, 25°C, 48 h, OD 600 nm (Bioscreen C), three replicates, experiment repeated twice; MIC given as range
Protocol: as §1, §2, §3

[5] = tested on: Xanthomonas fragariae Xf349-9A; experiment: In vitro growth inhibition (MIC); type: cell-based; details: TSB, 25°C, 48 h, OD 600 nm (Bioscreen C), three replicates, experiment repeated twice; MIC given as range
Protocol: as §1, §2, §3

[6] = tested on: Xanthomonas axonopodis pv. vesicatoria 2133-2; details: TSB, 25°C, 48 h, OD 600 nm (Bioscreen C), three replicates, experiment repeated twice; MIC given as range
Source text: The corresponding monomers (flg15, BP13, Pep13, PIP1, BP16, BP100, BP143, BP387, BP475, and KSL-W) were included for comparison.
as §2, §3

horse erythrocytes = details: TRIS buffer pH 7.2, 1 h, 37°C, absorbance 540 nm, relative to melittin 100 μM, ± confidence interval (α = 0.05)
Protocol: The toxicity of peptide conjugates to eukaryotic cells was determined as the ability to lyse erythrocytes (Table SB).
The hemolytic activity of the compounds was evaluated by determining hemoglobin release from erythrocyte suspensions of horse blood (5% vol/vol) (Oxoid) as previously described ([45]). Blood was centrifuged at 6000g for 5 min, washed three times with TRIS buffer (10 mM TRIS, 150 mM NaCl, pH 7.2) and diluted 10 times. Compounds were solubilized in TRIS buffer at 750, 500, 300, and 100 μM and mixed with horse erythrocytes (1:1 vol/vol). The mixture was incubated with continuous shaking for 1 h at 37°C. Then, the tubes were centrifuged at 3500g for 10 min, 80-μL aliquots of the supernatant were transferred to 100-well microplates (Bioscreen) and diluted with 80 μL water, and the absorbance measured at 540 nm (Bioscreen). […] The percentage of hemolysis (H) was calculated using the equation H = 100 × ([Op − Ob]/[Om − Ob]), where Op is the density for a given compound concentration, Ob is that for the buffer, and Om is that for the melittin positive control.

tobacco leaves = experiment: Effect of peptide infiltration on tobacco leaves (phytotoxicity); type: in vivo
Protocol: Peptide conjugates were also assayed for their toxicity in tobacco leaves (Fig. 3, Table SC). After 48 h of infiltration, melittin caused a necrotic area of 0.70 and 2.17 cm in diameter at 50 and 250 μM, respectively. The monomers were not phytotoxic at those concentrations; all of them led to lesions of ≤1.2 cm at 250 μM. All peptide conjugates were also less phytotoxic than melittin, causing necrotic lesions between 0.26 and 1.67 cm in diameter at 250 μM. In particular, 15 of the 30 conjugates led to a necrotic area of <1 cm at this concentration. In general, sequences incorporating BP13 were among the most phytotoxic.
Peptide conjugates were evaluated for their effect on infiltration on tobacco leaves as described previously ([41]). Peptide solutions of 50, 150, and 250 μM were infiltrated (100 μL) into the mesophylls of fully expanded tobacco leaves. Infiltrations were carried out in a single leaf, and for each peptide and dose, at least three leaves randomly distributed in different plants were inoculated. Control infiltrations with water (negative control) or melittin (positive control) at the same molar concentration were performed. The appearance of symptoms on the leaves was followed for 48 h after infiltration and measured as lesion diameter.

[7] = HPLC retention time as indicator of relative hydrophobicity; type: physicochemical; details: chromatographic, Kromasil 100 C18 (4.6 mm × 40 mm, 3 μm), linear gradient 2 to 100% B over 12 min, 1 mL/min; A 0.1% aqueous TFA, B 0.1% TFA in CH3CN; used as indicator of relative hydrophobicity
Protocol: The parameters related to the structure of the peptide conjugates (sequence, charge, hydrophobic ratio [HR], and HPLC retention time), as well as their physicochemical properties (grand average hydropathicity [GRAVY] and hydrophobic moment [<μH>]) obtained from the online programs ProtParam (Expasy server) and HeliQuest are included in Table 1.
Peptides were analyzed under standard analytical HPLC conditions. Method A: peptides were analyzed with a Dionex liquid chromatography instrument composed of a UV/Vis Dionex UVD170U detector, a P680 Dionex pump, an ASI-100 Dionex automatic injector, and Chromeleon 6.60 software. Detection was performed at a wavelength of 220 nm. Solvent A was 0.1% aqueous trifluoroacetic acid (TFA), and solvent B was 0.1% TFA in CH3CN. Analyses were carried out with a Kromasil 100 C18 (4.6 mm × 40 mm, 3 μm) column with a linear gradient of 2 to 100% B over 7 min at a flow rate of 1 mL/min. Method B: peptides were analyzed with a 1260 Infinity II liquid chromatography instrument (Agilent Technologies) composed of a diode array detector HS, a quaternary pump VL, a 1260 vial sampler, and OpenLab CDS ChemStation software. Analyses were carried out with a Kromasil 100 C18 (4.6 mm × 40 mm, 3 μm) column with a linear gradient of 2 to 100% B over 12 min at a flow rate of 1 mL/min.

[8] = 100 μL infiltrated into mesophyll, lesion diameter 48 h after infiltration, at least three leaves, ± confidence interval (α = 0.05)

| Compound | MIC, Ea [1] [µM] | MIC, Psa [2] [µM] | MIC, Pss [3] [µM] | MIC, Xap [4] [µM] | MIC, Xf [5] [µM] | MIC, Xav [6] [µM] | Percent hemolysis at 50 μM (horse erythrocytes) [%] | Percent hemolysis at 150 μM (horse erythrocytes) [%] | Percent hemolysis at 250 μM (horse erythrocytes) [%] | Percent hemolysis at 375 μM (horse erythrocytes) [%] | Size of the lesions in infiltrated tobacco leaves at 50 μM (tobacco leaves; [8]) [cm] | Size of the lesions in infiltrated tobacco leaves at 150 μM (tobacco leaves; [8]) [cm] | Size of the lesions in infiltrated tobacco leaves at 250 μM (tobacco leaves; [8]) [cm] | tR (min), HPLC retention time (method B) [7] [min] | Size of the lesions in infiltrated tobacco leaves at 50 μM (tobacco leaves; in vivo) [cm] | Size of the lesions in infiltrated tobacco leaves at 150 μM (tobacco leaves; in vivo) [cm] | Size of the lesions in infiltrated tobacco leaves at 250 μM (tobacco leaves; in vivo) [cm] |
| --- | --- | --- | --- | --- | --- | --- | --- | --- | --- | --- | --- | --- | --- | --- | --- | --- | --- |
| CCCC(=O)NCCCC[C@H](NC(=O)[C@H](CCCCN)NC(=O)[C@H](CC(C)C)NC(=O)[C@@H](NC(=O)[C@H](CCCCN)NC(=O)[C@H](CCCCN)NC(=O)[C@@H](Cc1ccccc1)NC(=O)[C@H](CC(C)C)NC(=O)[C@H](CCCCN)NC(=O)[C@H](CCCCN)NC(C)=O)[C@@H](C)CC)C(=O)N[C@@H](CC(C)C)C(=O)N[C@@H](Cc1ccc(O)cc1)C(=O)NCC(=O)N[C@H](C(=O)N[C@@H](Cc1c[nH]cn1)C(=O)N[C@H](C(=O)N[C@@H](Cc1c[nH]cn1)C(N)=O)[C@@H](C)O)[C@@H](C)CC [BP475-PIP1] (Ac-KKL[dF]KKILKK(Butyryl)LYGIHTH-NH2) | 3.1 to 6.2 | 1.6 to 3.1 | 6.2 to 12.5 | 0.8 to 1.6 | 1.6 to 3.1 | 3.1 to 6.2 | 9 ± 1.0 | 18 ± 1.4 | 26 ± 2.8 | 39 ± 2.0 | 0.47 ± 0.06 | 1.40 ± 0.00 | 1.67 ± 0.13 | 6.28 |  |  |  |
| Ac-KKLFKKIK(COC3H7)KYL-RINSAKDDAAGLQIA-OH [BP387-flg15, peptide conjugate, lipopeptide BP387 at N-terminus, flg15 at C-terminus] | 25 to 50 | 6.2 to 12.5 | 3.1 to 6.2 | 1.6 to 3.1 | 6.2 to 12.5 | 3.1 to 6.2 | 3 ± 0.3 | 5 ± 0.9 | 7 ± 0.2 | 9 ± 2.5 | 0.23 ± 0.24 | 0.33 ± 0.35 | 0.93 ± 0.40 | 5.84 |  |  |  |
| Ac-KKLfKKILKK(COC3H7)L-RINSAKDDAAGLQIA-OH [BP475-flg15, peptide conjugate, lipopeptide BP475 at N-terminus, flg15 at C-terminus] | 12.5 to 25 | 3.1 to 6.2 | 6.2 to 12.5 | 1.6 to 3.1 | 25 to 50 | 3.1 to 6.2 | 1 ± 1.0 | 0 ± 0.2 | 1 ± 0.3 | 1 ± 0.3 | 0.43 ± 0.13 | 1.20 ± 0.23 | 1.23 ± 0.28 | 6.03 |  |  |  |
| H-FKLFKKILKVLKKVVFWVKFK-NH2 [BP13-KSLW] | > 50 | 6.2 to 12.5 | 12.5 to 25 | 1.6 to 3.1 | 1.6 to 3.1 | 1.6 to 3.1 | 80 ± 11.2 | 90 ± 7.3 | 100 ± 8.4 | 99 ± 8.4 | 0.56 ± 0.23 | 1.00 ± 0.25 | 0.92 ± 0.36 | 7.02 |  |  |  |
| H-KKVVFWVKFKFKLFKKILKVL-NH2 [KSLW-BP13] | 25 to 50 | 1.6 to 3.1 | 25 to 50 | 1.6 to 3.1 | 1.6 to 3.1 | 3.1 to 6.2 | 62 ± 8.2 | 65 ± 5.9 | 77 ± 12.9 | 82 ± 10.4 | 0.52 ± 0.13 | 0.88 ± 0.15 | 1.07 ± 0.34 | 6.26 |  |  |  |
| H-KKVVFWVKFKYGIHTH-NH2 [KSLW-PIP1] | > 50 | > 50 | > 50 | 3.1 to 6.2 | 3.1 to 6.2 | 3.1 to 6.2 | 8 ± 1.3 | 3 ± 2.1 | 3 ± 1.2 | 5 ± 4.9 |  |  |  | 4.83 | 0.17 ± 0.17 | 0.53 ± 0.07 | 0.97 ± 0.28 |
